Source: patent publication US11820766B2, “Monoacylglycerol lipase modulators” (Janssen Pharmaceutica NV, priority 2018, dated 2023)

Molecular target: T1, human MGL from HeLa cells (Homo sapiens, UniProt Q99685)
T1 construct: combining endogenously expressed MGL from HeLa cells with test compounds; endogenous in cells; host or cells: HeLa cells / cell homogenates
T1 sequence (Q99685 1-303): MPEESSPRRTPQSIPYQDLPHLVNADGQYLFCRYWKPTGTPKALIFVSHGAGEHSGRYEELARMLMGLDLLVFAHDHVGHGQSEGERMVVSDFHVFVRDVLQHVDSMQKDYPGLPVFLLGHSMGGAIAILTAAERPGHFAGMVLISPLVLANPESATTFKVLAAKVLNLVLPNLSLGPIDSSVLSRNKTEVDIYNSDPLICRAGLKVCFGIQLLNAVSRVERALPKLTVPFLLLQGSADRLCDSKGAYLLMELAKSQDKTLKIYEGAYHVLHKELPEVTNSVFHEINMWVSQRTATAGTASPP
Test: In vitro MGL activity assay: [glycerol-1,3-3H]-oleyl glycerol cleavage by MGL from HeLa cells
Format: biochemical
Details: 300 nM [Glycerol-1,3-3H]-oleyl glycerol, one hour incubation
From the text: MGL is the predominant hydrolase in HeLa cells/cell homogenates.

Row | SMILES | IC50 [nM]
1 | C[C@H]1c2nn(C)c(-c3ccc(C(F)(F)F)o3)c2CCN1C(=O)c1ccc2nccnc2c1 [Example 247, (S)-(2,7-Dimethyl-3-(5-(trifluoromethyl)furan-2-yl)-2,4,5,7-tetrahydro-6H-pyrazolo[3,4-c]pyridin-6-yl)(quinoxalin-6-yl)methanone] | 186
2 | C[C@H]1c2nn(C)c(-c3cncc(C(F)(F)F)c3)c2CCN1C(=O)c1ccc2nccnc2c1 [Example 248, (S)-(2,7-Dimethyl-3-(5-(trifluoromethyl)pyridin-3-yl)-2,4,5,7-tetrahydro-6H-pyrazolo[3,4-c]pyridin-6-yl)(quinoxalin-6-yl)methanone] | 2230
3 | CC1c2nn(C)c(-c3cccc4c3ccn4C)c2CCN1C(=O)c1ccc2ncccc2c1 (stereo not shown) [Example 249, (2,7-Dimethyl-3-(1-methyl-1H-indol-4-yl)-2,4,5,7-tetrahydro-6H-pyrazolo[3,4-c]pyridin-6-yl)(quinolin-6-yl)methanone] | 1530
4 | CC1c2nn(C)c(-c3cc4ccccc4n3C)c2CCN1C(=O)c1ccc2ncccc2c1 (stereo not shown) [Example 250, (2,7-Dimethyl-3-(1-methyl-1H-indol-2-yl)-2,4,5,7-tetrahydro-6H-pyrazolo[3,4-c]pyridin-6-yl)(quinolin-6-yl)methanone] | 206
5 | CC1c2nn(C)c(-c3cn(C)c4ccccc34)c2CCN1C(=O)c1ccc2ncccc2c1 (stereo not shown) [Example 251, (2,7-Dimethyl-3-(1-methyl-1H-indol-3-yl)-2,4,5,7-tetrahydro-6H-pyrazolo[3,4-c]pyridin-6-yl)(quinolin-6-yl)methanone] | 1890
6 | CC1c2nn(C)c(-c3ccc4c(ccn4C)c3)c2CCN1C(=O)c1ccc2ncccc2c1 (stereo not shown) [Example 252, (2,7-Dimethyl-3-(1-methyl-1H-indol-5-yl)-2,4,5,7-tetrahydro-6H-pyrazolo[3,4-c]pyridin-6-yl)(quinolin-6-yl)methanone] | 631
7 | CC1c2nn(C)c(-c3cccc4ccn(C)c34)c2CCN1C(=O)c1ccc2ncccc2c1 (stereo not shown) [Example 253, (2,7-Dimethyl-3-(1-methyl-1H-indol-7-yl)-2,4,5,7-tetrahydro-6H-pyrazolo[3,4-c]pyridin-6-yl)(quinolin-6-yl)methanone] | 1610

These reach a lower IC50. Values come first.

Row | IC50 [nM] | SMILES
8 | 122 | C[C@H]1c2nn(C)c(-c3cc(F)c(F)c(F)c3)c2CCN1C(=O)c1cnc2cccnc2c1 [Example 245, (S)-(2,7-Dimethyl-3-(3,4,5-trifluorophenyl)-2,4,5,7-tetrahydro-6H-pyrazolo[3,4-c]pyridin-6-yl)(1,5-naphthyridin-3-yl)methanone]
9 | 101 | COc1cccc(C(=O)N2CCc3c(nn(-c4ccccc4)c3-c3ccccc3)[C@@H]2C)c1 [Example 257, (3-Methoxyphenyl)-[(7S)-7-methyl-2,3-diphenyl-5,7-dihydro-4H-pyrazolo[3,4-c]pyridin-6-yl]methanone]
10 | 68.5 | COc1ccc(C(=O)N2CCc3c(nn(C)c3-c3cc(C)cc(F)c3)[C@@H]2C)cc1 [Example 258, [(7S)-3-(3-Fluoro-5-methyl-phenyl)-2,7-dimethyl-5,7-dihydro-4H-pyrazolo[3,4-c]pyridin-6-yl]-(4-methoxyphenyl)methanone]
11 | 20 | C[C@H]1c2nn(C)c(-c3cc(F)c(F)c(F)c3)c2CCN1C(=O)c1cncc2cccnc12 [Example 246, (S)-(2,7-Dimethyl-3-(3,4,5-trifluorophenyl)-2,4,5,7-tetrahydro-6H-pyrazolo[3,4-c]pyridin-6-yl)(1,6-naphthyridin-8-yl)methanone]
12 | 12.6 | COc1ccccc1C(=O)N1CCc2c(nn(C)c2-c2cc(F)c(F)c(F)c2)[C@@H]1C [Example 259, [(7S)-2,7-Dimethyl-3-(3,4,5-trifluorophenyl)-5,7-dihydro-4H-pyrazolo[3,4-c]pyridin-6-yl]-(2-methoxyphenyl)methanone]
13 | 7.25 | COc1cccc(C(=O)N2CCc3c(nn(C)c3-c3cc(F)c(F)c(F)c3)[C@@H]2C)c1 [Example 260, [(7S)-2,7-Dimethyl-3-(3,4,5-trifluorophenyl)-5,7-dihydro-4H-pyrazolo[3,4-c]pyridin-6-yl]-(3-methoxyphenyl)methanone]
